ChEMBL document CHEMBL3991601, “The target landscape of clinical kinase drugs” (Science, 2017)
The source made the active and inactive calls.

Tests used:
[1] = target: DNA topoisomerase 2-alpha (Homo sapiens, UniProt P11388)
[2] = target: Ras-related protein Rab-6A (Homo sapiens, UniProt P20340)
[3] = target: Tyrosine-protein kinase SYK (Homo sapiens, UniProt P43405)
[4] = target: Receptor-interacting serine/threonine-protein kinase 2 (Homo sapiens, UniProt O43353)
[5] = target: Mitogen-activated protein kinase 9 (Homo sapiens, UniProt P45984)
Mitogen-activated protein kinase 9, sequence (P45984 whole entry): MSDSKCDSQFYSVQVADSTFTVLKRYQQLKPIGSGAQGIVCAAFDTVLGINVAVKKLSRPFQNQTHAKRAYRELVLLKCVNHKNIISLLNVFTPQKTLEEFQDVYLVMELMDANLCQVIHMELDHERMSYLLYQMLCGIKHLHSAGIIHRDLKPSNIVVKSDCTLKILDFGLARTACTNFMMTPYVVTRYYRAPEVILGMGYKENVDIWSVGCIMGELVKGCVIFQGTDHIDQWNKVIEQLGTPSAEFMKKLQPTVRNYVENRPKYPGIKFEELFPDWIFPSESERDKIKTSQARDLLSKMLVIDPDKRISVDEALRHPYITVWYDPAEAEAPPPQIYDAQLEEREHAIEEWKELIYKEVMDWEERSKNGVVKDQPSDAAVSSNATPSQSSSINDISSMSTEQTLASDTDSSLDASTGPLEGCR

[6] = target: Serine/threonine-protein kinase 26 (Homo sapiens, UniProt Q9P289)
Serine/threonine-protein kinase 26, sequence (Q9P289 whole entry): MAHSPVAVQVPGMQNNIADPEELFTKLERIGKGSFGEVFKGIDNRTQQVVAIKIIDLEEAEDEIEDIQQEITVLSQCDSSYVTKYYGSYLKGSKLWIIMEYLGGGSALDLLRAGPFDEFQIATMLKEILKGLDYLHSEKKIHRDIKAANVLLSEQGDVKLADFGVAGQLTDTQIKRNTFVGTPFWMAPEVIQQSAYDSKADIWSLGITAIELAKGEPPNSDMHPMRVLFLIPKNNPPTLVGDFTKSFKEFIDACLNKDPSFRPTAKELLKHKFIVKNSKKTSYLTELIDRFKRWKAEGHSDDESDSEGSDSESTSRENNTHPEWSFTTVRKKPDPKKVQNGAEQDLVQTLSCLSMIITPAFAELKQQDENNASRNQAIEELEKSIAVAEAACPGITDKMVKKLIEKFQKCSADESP

[7] = target: Serine/threonine-protein kinase SIK2 (Homo sapiens, UniProt Q9H0K1)
Serine/threonine-protein kinase SIK2, sequence (Q9H0K1 whole entry): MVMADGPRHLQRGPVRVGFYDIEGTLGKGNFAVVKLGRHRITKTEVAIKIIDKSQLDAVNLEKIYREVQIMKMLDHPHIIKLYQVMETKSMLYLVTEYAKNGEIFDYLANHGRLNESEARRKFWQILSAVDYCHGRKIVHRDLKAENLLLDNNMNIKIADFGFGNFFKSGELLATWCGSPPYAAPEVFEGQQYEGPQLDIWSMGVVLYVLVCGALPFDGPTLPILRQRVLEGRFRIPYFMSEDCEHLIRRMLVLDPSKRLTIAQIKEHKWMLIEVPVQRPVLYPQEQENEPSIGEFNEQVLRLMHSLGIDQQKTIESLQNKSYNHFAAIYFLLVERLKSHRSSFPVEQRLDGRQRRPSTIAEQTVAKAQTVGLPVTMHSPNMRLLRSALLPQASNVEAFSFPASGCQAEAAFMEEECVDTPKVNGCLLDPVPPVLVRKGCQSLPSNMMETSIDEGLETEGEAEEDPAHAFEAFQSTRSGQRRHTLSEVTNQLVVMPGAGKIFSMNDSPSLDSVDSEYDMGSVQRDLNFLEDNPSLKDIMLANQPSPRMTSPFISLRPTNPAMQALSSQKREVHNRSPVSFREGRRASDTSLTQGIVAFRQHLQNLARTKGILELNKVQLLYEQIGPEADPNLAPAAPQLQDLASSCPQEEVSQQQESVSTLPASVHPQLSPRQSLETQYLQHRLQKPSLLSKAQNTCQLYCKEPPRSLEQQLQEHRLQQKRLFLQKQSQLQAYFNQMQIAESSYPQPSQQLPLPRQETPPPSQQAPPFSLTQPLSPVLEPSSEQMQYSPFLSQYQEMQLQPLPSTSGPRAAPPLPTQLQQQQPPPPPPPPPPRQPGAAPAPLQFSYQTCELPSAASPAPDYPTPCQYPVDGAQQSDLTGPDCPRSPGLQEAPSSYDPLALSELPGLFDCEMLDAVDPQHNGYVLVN

[8] = target: cAMP-dependent protein kinase catalytic subunit gamma (Homo sapiens, UniProt P22612)
cAMP-dependent protein kinase catalytic subunit gamma, sequence (P22612 whole entry): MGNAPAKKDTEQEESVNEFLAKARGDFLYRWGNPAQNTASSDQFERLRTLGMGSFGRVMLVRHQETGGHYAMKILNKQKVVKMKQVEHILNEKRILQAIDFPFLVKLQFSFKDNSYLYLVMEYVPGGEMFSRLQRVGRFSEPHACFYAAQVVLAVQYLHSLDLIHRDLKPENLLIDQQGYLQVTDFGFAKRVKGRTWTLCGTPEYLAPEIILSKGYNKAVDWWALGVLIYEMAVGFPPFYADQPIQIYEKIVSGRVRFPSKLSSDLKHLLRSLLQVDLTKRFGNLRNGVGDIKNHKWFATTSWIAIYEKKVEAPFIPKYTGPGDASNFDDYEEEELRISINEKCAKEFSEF

[9] = target: T1, Structural maintenance of chromosomes protein 1A (Homo sapiens, UniProt Q14683)
T1 sequence (Q14683 whole entry): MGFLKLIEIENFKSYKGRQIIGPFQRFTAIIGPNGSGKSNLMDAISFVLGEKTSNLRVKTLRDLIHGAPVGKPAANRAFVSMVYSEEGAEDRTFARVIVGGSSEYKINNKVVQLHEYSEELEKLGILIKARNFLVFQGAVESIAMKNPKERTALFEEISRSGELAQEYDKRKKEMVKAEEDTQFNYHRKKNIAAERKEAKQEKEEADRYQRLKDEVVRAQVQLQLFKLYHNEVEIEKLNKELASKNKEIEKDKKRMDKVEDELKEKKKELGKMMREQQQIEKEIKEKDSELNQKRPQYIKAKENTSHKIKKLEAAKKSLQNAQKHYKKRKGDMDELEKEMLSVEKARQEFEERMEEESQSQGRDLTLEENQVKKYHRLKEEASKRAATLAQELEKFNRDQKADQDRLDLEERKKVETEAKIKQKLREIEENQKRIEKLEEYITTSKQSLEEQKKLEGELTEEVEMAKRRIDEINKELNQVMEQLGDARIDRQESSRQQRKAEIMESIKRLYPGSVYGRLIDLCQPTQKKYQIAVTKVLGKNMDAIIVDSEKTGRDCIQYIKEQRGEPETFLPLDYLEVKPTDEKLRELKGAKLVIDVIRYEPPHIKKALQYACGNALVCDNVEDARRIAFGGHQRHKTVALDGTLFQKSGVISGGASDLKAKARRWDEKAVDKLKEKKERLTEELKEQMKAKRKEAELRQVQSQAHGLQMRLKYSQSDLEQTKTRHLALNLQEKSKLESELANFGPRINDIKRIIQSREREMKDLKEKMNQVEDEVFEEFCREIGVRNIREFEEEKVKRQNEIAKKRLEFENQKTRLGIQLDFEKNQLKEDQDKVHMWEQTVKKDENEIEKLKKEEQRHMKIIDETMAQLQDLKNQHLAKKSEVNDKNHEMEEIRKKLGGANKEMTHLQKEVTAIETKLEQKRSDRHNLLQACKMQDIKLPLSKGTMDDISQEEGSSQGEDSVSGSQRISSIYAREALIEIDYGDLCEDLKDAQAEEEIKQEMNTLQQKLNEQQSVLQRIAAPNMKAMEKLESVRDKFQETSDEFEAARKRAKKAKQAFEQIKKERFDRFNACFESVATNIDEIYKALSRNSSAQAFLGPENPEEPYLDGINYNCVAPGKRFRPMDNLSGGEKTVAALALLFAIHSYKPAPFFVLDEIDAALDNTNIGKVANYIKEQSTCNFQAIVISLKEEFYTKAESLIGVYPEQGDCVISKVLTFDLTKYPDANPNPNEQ

[10] = target: T2, ATP-dependent 6-phosphofructokinase, platelet type (Homo sapiens, UniProt Q01813)
T2 sequence (Q01813 whole entry): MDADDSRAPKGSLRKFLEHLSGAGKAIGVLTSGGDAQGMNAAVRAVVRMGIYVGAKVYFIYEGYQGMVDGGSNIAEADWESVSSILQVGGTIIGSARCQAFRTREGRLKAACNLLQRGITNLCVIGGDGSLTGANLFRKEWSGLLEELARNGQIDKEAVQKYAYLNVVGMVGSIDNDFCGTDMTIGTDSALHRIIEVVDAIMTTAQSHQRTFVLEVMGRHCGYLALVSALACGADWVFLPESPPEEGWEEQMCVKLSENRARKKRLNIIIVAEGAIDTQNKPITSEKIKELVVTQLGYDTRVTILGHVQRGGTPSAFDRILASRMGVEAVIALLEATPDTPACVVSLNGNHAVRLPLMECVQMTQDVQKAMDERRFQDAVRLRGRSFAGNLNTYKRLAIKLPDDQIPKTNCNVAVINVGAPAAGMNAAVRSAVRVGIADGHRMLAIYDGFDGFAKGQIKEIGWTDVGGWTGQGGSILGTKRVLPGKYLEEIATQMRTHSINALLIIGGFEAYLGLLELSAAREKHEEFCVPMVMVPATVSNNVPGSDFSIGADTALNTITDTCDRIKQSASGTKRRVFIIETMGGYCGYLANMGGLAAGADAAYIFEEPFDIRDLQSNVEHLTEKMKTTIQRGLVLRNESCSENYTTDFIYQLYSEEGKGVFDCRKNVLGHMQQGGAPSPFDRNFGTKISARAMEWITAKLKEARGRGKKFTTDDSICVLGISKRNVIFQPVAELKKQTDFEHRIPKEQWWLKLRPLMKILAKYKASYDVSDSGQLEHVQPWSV

[11] = target: Mitogen-activated protein kinase 11 (Homo sapiens, UniProt Q15759)
Mitogen-activated protein kinase 11, sequence (Q15759 whole entry): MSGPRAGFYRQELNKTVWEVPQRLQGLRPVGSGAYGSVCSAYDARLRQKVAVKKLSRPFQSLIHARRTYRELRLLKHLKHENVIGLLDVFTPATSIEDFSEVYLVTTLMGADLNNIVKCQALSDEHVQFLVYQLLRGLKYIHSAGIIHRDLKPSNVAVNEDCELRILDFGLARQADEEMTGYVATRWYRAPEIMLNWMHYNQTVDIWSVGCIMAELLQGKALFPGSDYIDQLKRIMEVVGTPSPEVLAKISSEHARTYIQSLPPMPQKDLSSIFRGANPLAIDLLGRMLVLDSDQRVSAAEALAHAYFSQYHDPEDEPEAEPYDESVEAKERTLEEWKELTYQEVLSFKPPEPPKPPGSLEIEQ

[12] = target: Cyclin-dependent kinase 3 (Homo sapiens, UniProt Q00526)
Cyclin-dependent kinase 3, sequence (Q00526 whole entry): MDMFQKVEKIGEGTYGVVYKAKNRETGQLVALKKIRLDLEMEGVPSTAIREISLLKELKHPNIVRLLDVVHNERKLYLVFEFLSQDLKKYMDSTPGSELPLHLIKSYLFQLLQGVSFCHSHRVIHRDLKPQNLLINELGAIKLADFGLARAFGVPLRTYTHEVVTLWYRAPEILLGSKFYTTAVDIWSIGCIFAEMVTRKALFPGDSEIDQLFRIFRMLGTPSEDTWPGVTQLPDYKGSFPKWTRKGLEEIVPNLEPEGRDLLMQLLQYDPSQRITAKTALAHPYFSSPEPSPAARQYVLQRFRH

GTP-binding protein 4 = GTP-binding protein 4 (Homo sapiens, UniProt Q9BZE4)
[13] = target: Mitogen-activated protein kinase 3 (Homo sapiens, UniProt P27361)
Mitogen-activated protein kinase 3, sequence (P27361 whole entry): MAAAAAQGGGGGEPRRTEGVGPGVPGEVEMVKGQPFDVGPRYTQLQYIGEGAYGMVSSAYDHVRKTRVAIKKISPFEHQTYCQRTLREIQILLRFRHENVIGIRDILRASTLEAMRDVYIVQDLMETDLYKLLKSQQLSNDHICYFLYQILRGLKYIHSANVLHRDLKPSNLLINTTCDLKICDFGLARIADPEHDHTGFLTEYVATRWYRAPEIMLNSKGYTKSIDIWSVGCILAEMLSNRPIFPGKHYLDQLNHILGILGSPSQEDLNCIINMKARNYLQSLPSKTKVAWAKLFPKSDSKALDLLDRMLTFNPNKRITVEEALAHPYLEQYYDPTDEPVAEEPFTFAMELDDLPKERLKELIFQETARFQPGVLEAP
Also: in the data inactive means no Kd found up to 30 µM.

Receptor-interacting serine/threonine-protein kinase 2, sequence (O43353 whole entry): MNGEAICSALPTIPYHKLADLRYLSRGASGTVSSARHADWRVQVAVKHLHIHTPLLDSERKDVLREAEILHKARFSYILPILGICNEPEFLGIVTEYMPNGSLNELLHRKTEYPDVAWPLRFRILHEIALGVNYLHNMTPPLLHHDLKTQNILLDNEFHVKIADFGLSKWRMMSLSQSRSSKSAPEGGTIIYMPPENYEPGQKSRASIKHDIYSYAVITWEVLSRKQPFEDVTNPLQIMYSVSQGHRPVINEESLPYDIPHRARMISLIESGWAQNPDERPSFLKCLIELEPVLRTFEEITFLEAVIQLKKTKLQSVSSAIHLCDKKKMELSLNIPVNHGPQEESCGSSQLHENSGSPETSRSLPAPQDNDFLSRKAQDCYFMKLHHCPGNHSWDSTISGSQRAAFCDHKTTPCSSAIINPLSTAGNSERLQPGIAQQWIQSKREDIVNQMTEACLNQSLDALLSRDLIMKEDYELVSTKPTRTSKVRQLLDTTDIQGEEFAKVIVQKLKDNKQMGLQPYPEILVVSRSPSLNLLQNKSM
Ras-related protein Rab-6A, sequence (P20340 whole entry): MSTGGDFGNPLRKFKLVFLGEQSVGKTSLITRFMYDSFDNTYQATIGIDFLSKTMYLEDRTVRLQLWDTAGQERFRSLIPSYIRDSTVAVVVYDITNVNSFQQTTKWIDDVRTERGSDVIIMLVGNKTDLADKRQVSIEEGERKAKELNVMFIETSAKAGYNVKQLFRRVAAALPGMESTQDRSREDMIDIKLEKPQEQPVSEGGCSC

| Kd [1] | Kd [2] | Kd [3] | Kd [4] | Kd [5] | Kd [6] | Kd [7] | Kd [8] | Kd [9] | Kd [10] | Kd [11] | Kd [12] | Kd (GTP-binding protein 4) | Kd [13] | Compound |
| --- | --- | --- | --- | --- | --- | --- | --- | --- | --- | --- | --- | --- | --- | --- |
| > 30 µM (inactive) | > 30 µM (inactive) | > 30 µM (inactive) | > 30 µM (inactive) | > 30 µM (inactive) | > 30 µM (inactive) | > 30 µM (inactive) | > 30 µM (inactive) | > 30 µM (inactive) | > 30 µM (inactive) | > 30 µM (inactive) | > 30 µM (inactive) | > 30 µM (inactive) | > 30 µM (inactive) | COc1cc(OC)c(/C=C/S(=O)(=O)Cc2ccc(OC)c(NCC(=O)O)c2)c(OC)c1 [RIGOSERTIB] |
| > 30 µM (inactive) | > 30 µM (inactive) | > 30 µM (inactive) | > 30 µM (inactive) | > 30 µM (inactive) | > 30 µM (inactive) | 6.12 µM (active) | > 30 µM (inactive) | > 30 µM (inactive) | > 30 µM (inactive) | > 30 µM (inactive) | > 30 µM (inactive) | > 30 µM (inactive) | > 30 µM (inactive) | CN1CCC(CNc2ccc3ncc(-c4cccc(OC(F)(F)F)c4)n3n2)CC1 [SGI-1776] |
| > 30 µM (inactive) | > 30 µM (inactive) | > 30 µM (inactive) | > 30 µM (inactive) | > 30 µM (inactive) | > 30 µM (inactive) | > 30 µM (inactive) | > 30 µM (inactive) | > 30 µM (inactive) | > 30 µM (inactive) | > 30 µM (inactive) | > 30 µM (inactive) | > 30 µM (inactive) | > 30 µM (inactive) | C[C@@H](c1ccc2nccn2c1)n1nnc2ncc(-c3cnn(C)c3)nc21 [SAVOLITINIB] |
| > 30 µM (inactive) | > 30 µM (inactive) | > 30 µM (inactive) | > 30 µM (inactive) | > 30 µM (inactive) | > 30 µM (inactive) | > 30 µM (inactive) | > 30 µM (inactive) | > 30 µM (inactive) | > 30 µM (inactive) | > 30 µM (inactive) | > 30 µM (inactive) | > 30 µM (inactive) | > 30 µM (inactive) | Cc1cc([C@@H](C)Nc2ccccc2C(=O)O)c2nc(N3CCOCC3)cc(=O)n2c1 [AZD-6482] |
| > 30 µM (inactive) | > 30 µM (inactive) | > 30 µM (inactive) | > 30 µM (inactive) | > 30 µM (inactive) | > 30 µM (inactive) | > 30 µM (inactive) | > 30 µM (inactive) | > 30 µM (inactive) | > 30 µM (inactive) | > 30 µM (inactive) | > 30 µM (inactive) | > 30 µM (inactive) | > 30 µM (inactive) | COc1ccc(-c2ccc3c(N4CCOC[C@@H]4C)nc(N4CCOC[C@@H]4C)nc3n2)cc1CO [AZD-8055] |
| > 30 µM (inactive) | > 30 µM (inactive) | > 30 µM (inactive) | > 30 µM (inactive) | > 30 µM (inactive) | > 30 µM (inactive) | 2.49 µM (active) | > 30 µM (inactive) | > 30 µM (inactive) | > 30 µM (inactive) | > 30 µM (inactive) | > 30 µM (inactive) | > 30 µM (inactive) | > 30 µM (inactive) | CN(C)C(=O)c1cc2cnc(Nc3ccc(N4CCNCC4)cn3)nc2n1C1CCCC1 [RIBOCICLIB] |

| Compound | Kd [1] | Kd [2] | Kd [3] | Kd [4] | Kd [5] | Kd [6] | Kd [7] | Kd [8] | Kd [9] | Kd [10] | Kd [11] | Kd [12] | Kd (GTP-binding protein 4) | Kd [13] |
| --- | --- | --- | --- | --- | --- | --- | --- | --- | --- | --- | --- | --- | --- | --- |
| Cc1ccc(-n2nc(C(C)(C)C)cc2NC(=O)NCc2cc(F)ccc2Oc2ccc3c(cnn3CCO)c2)cc1 [PEXMETINIB] | > 30 µM (inactive) | > 30 µM (inactive) | > 30 µM (inactive) | > 30 µM (inactive) | 0.312 µM (active) | > 30 µM (inactive) | > 30 µM (inactive) | > 30 µM (inactive) | > 30 µM (inactive) | > 30 µM (inactive) | 0.192 µM (active) | > 30 µM (inactive) | > 30 µM (inactive) | > 30 µM (inactive) |
